Earlier results as cited in PubChem BioAssay AID1259409 (Chemical Carcinogenesis Research Information System (CCRIS), 2018).

Tested on: rodent chemically induced tumor inhibition, incidence and multiplicity
Assay: CCRIS tumor inhibitor studies
Settings: Route [Inhibitor]: ORAL

SMILES: CC1=C(/C=C/C(C)=C/C=C/C(C)=C/C(=O)Nc2ccc(O)cc2)C(C)(C)CCC1
- tumour outcome (control, treated, inhibition, significance) (Carcinogen: 1,2-DIMETHYLHYDRAZINE, 540-73-8, Dose [Inhibitor]: 2.0 MMOL/KG DIET DAILY STARTING 12 D AFTER CARCINOGEN TREATMENT THROUGH ABOUT 8 MO AFTER CARCINOGEN DOSE (STUDY DURATION, Species: RAT, Strain/Sex: F344/MALE, Target Tissue: Type of Lesion: COLON: ADENOCARCINOMA, Dose [Carcinogen]: 150 MG/KG BW ONCE, Promoter: NONE USED): 10/39 (26%), 5/30 (17%), 35%, not significant
- tumour outcome (control, treated, inhibition, significance) (Carcinogen: 1,2-DIMETHYLHYDRAZINE, 540-73-8, Dose [Inhibitor]: 2.0 MMOL/KG DIET DAILY STARTING 12 D AFTER CARCINOGEN TREATMENT THROUGH ABOUT 8 MO AFTER CARCINOGEN DOSE (STUDY DURATION, Species: RAT, Strain/Sex: F344/MALE, Target Tissue: Type of Lesion: COLON: ADENOMA, Dose [Carcinogen]: 150 MG/KG BW ONCE, Promoter: NONE USED): 23/39 (59%), 7/30 (23%), 61%, p<0.05
- tumour outcome (control, treated, inhibition, significance) (Carcinogen: 4-(METHYLNITROSAMINO)-1-(3-PYRIDYL)-1-BUTANONE [64091-50-5], Dose [Inhibitor]: 2 MMOL/KG IN DIET FOR 17 WK BEGINNING 1 WK PRIOR TO FIRST CARCINOGEN DOSE (STUDY DURATION: 17 WK), Species: MOUSE, Strain/Sex: A/J/FEMALE, Target Tissue: Type of Lesion: LUNG: ADENOMA, Dose [Carcinogen]: 10 UMOL ONCE 1 WK POST FIRST INHIBITOR DOSE (STUDY DURATION: 17 WK), Promoter: NONE): 100%, 100%, 0%, not significant
- tumour outcome (control, treated, inhibition, significance) (Carcinogen: 4-(METHYLNITROSAMINO)-1-(3-PYRIDYL)-1-BUTANONE [64091-50-5], Dose [Inhibitor]: 2 MMOL/KG IN DIET FOR 53 WK BEGINNING 1 WK PRIOR TO FIRST CARCINOGEN DOSE (STUDY DURATION: 53 WK), Species: MOUSE, Strain/Sex: A/J/FEMALE, Target Tissue: Type of Lesion: LUNG: ADENOMA OR ADENOCARCINOMA, Dose [Carcinogen]: 10 UMOL ONCE 1 WK POST FIRST INHIBITOR DOSE (STUDY DURATION: 53 WK), Promoter: NONE): 100%, 100%, 0%, not significant
- tumour outcome (control, treated, inhibition, significance) (Carcinogen: 4-(METHYLNITROSAMINO)-1-(3-PYRIDYL)-1-BUTANONE [64091-50-5], Dose [Inhibitor]: 4 MMOL/KG IN DIET FOR 17 WK BEGINNING 1 WK PRIOR TO FIRST CARCINOGEN DOSE (STUDY DURATION: 17 WK), Species: MOUSE, Strain/Sex: A/J/FEMALE, Target Tissue: Type of Lesion: LUNG: ADENOMA, Dose [Carcinogen]: 10 UMOL ONCE 1 WK POST FIRST INHIBITOR DOSE (STUDY DURATION: 17 WK), Promoter: NONE): 100%, 100%, 0%, not significant
- tumour outcome (control, treated, inhibition, significance) (Carcinogen: 4-(METHYLNITROSAMINO)-1-(3-PYRIDYL)-1-BUTANONE [64091-50-5], Dose [Inhibitor]: 4 MMOL/KG IN DIET FOR 53 WK BEGINNING 1 WK PRIOR TO FIRST CARCINOGEN DOSE (STUDY DURATION: 53 WK), Species: MOUSE, Strain/Sex: A/J/FEMALE, Target Tissue: Type of Lesion: LUNG: ADENOMA OR ADENOCARCINOMA, Dose [Carcinogen]: 10 UMOL ONCE 1 WK POST FIRST INHIBITOR DOSE (STUDY DURATION: 53 WK), Promoter: NONE): 100%, 93%, 7%, not significant
- tumour outcome (control, treated, inhibition, significance) (Carcinogen: 7,12-DIMETHYLBENZ[A]ANTHRACENE, 57-97-6, Dose [Inhibitor]: 0, 1 MMOL/KG IN DIET FOR THE DURATION OF STUDY BEGINNING 1 WK PRIOR TO CARCINOGEN DOSE (STUDY DURATION: 105 WK), Species: RAT, Strain/Sex: SPRAGUE-DAWLEY/FEMALE, Target Tissue: Type of Lesion: MAMMARY GLAND: TUMOR, Dose [Carcinogen]: 15 MG IN 1 ML SESAME OIL ONCE, Promoter: NONE USED): 88%, 73%, 17%, not significant
- tumour outcome (control, treated, inhibition, significance) (Carcinogen: 7,12-DIMETHYLBENZ[A]ANTHRACENE, 57-97-6, Dose [Inhibitor]: 0, 2 MMOL/KG IN DIET FOR THE DURATION OF STUDY BEGINNING 1 WK PRIOR TO CARCINOGEN DOSE (STUDY DURATION: 105 WK), Species: RAT, Strain/Sex: SPRAGUE-DAWLEY/FEMALE, Target Tissue: Type of Lesion: MAMMARY GLAND: TUMOR, Dose [Carcinogen]: 15 MG IN 1 ML SESAME OIL ONCE, Promoter: NONE USED): 88%, 33%, 63%, not significant
- tumour outcome (control, treated, inhibition, significance) (Carcinogen: 7,12-DIMETHYLBENZ[A]ANTHRACENE, 57-97-6, Dose [Inhibitor]: 0, 2 MMOL/KG OF DIET FOR 15.5 WK BEGINNING 10 D PRIOR TO CARCINOGEN DOSE (STUDY DURATION: 17 WK), Species: RAT, Strain/Sex: SPRAGUE-DAWLEY/FEMALE, Target Tissue: Type of Lesion: MAMMARY GLAND: TUMOR, Dose [Carcinogen]: 15 MG IN 1 ML OF SESAME OIL ONCE AT 50 D OF AGE, Promoter: NONE USED): 92%, 58%, 37%, not calculated
- tumour outcome (control, treated, inhibition, significance) (Carcinogen: 7,12-DIMETHYLBENZ[A]ANTHRACENE, 57-97-6, Dose [Inhibitor]: 0, 2 MMOL/KG OF DIET FOR 18.5 WK BEGINNING 10 D PRIOR TO CARCINOGEN DOSE (STUDY DURATION: 18.5 WK), Species: RAT, Strain/Sex: SPRAGUE-DAWLEY/FEMALE, Target Tissue: Type of Lesion: MAMMARY GLAND: TUMOR, Dose [Carcinogen]: 15 MG IN 1 ML OF SESAME OIL ONCE AT 50 D OF AGE, Promoter: NONE USED): 83%, 33%, 60%, not calculated
- tumour outcome (control, treated, inhibition, significance) (Carcinogen: 7,12-DIMETHYLBENZ[A]ANTHRACENE, 57-97-6, Dose [Inhibitor]: 0, 2 MMOL/KG OF DIET FOR 20 D BEGINNING 10 D PRIOR TO CARCINOGEN DOSE (STUDY DURATION: 18.5 WK), Species: RAT, Strain/Sex: SPRAGUE-DAWLEY/FEMALE, Target Tissue: Type of Lesion: MAMMARY GLAND: TUMOR, Dose [Carcinogen]: 15 MG IN 1 ML OF SESAME OIL ONCE AT 50 D OF AGE, Promoter: NONE USED): 100%, 67%, 33%, not calculated
- tumour outcome (control, treated, inhibition, significance) (Carcinogen: 7,12-DIMETHYLBENZ[A]ANTHRACENE, 57-97-6, Dose [Inhibitor]: 0.75 MMOL/KG OF DIET IN 25 ML OF THE VEHICLE (ETHANOL/TRICAPRYLIN 1:4 (VOL/VOL) PLUS 6% (WT/VOL) ALPHA-TOCOPHEROL) BEGIN, Species: RAT, Strain/Sex: SPRAGUE-DAWLEY/FEMALE, Target Tissue: Type of Lesion: MAMMARY GLAND: TUMOR, Dose [Carcinogen]: 75 MG/KG BW IN 1.0 ML SESAME OIL ONCE, Promoter: NONE USED): 70%, 65%, 7%, not significant
